Legend:
[1] = Acute oral toxicity (LD50) determined on mice; type: in vivo; settings: mouse, in vivo, oral administration
Excerpt: (§1) The N-carbamoylcysteine to be used in this invention is preferably N-carbamoyl-L-cysteine or N-carbamoyl-DL-cysteine from the viewpoint of practical usefulness but can be N-carbamoyl-D-cysteine. N-carbamoyl-L-cysteine can be prepared easily, for example, by reacting L-cysteine with potassium cyanate. Since it is possible to synthesize N-carbamoyl-DL-cysteine from an inexpensive industrial material, the compound can presumably be prepared more economically than N-carbamoyl-L-cysteine.

mice = assay: Acute oral toxicity (LD50) determined on mice; type: in vivo; settings: oral administration
Excerpt: as §1

[2] = type: physicochemical
Procedure: Eleven kinds of test solutions were prepared with use of L-cysteine and N-carbamoylcysteine in varying ratios as shown in Table 3 to test the solutions for storage stability. Basically these solutions have the following composition.
Each of the solutions was prepared by adding monoethanolamine (about 3 ml), L-cysteine, N-carbamoyl-L-cysteine and tetrasodium ethylenediaminetetraacetate to about 80 ml of purified water in the order mentioned with stirring, and adjusting the resulting solution to 100 ml with its pH adjusted to 9.1 with monoethanolamine. […] Test Solution A is a reference example.
The test solutions were prepared on the same day, placed into 200-ml colorless wide-mouthed reagent bottles respectively and allowed to stand at room temperature (20° to 26° C.) for 60 days with the mouths of the bottles left open. Consequently white powder of cystine separated out on the 9th day from Test Solution A containing L-cysteine alone, whereas Test Solutions B and C further containing N-carbamoyl-L-cysteine yielded white powder on the 15th day and 32nd day respectively. No powdery deposition was found in Test Solutions D to K even after the lapse of 60 days. […]

Solubility = type: physicochemical; settings: at a pH of below 8.7
[3] = background statement; cited from earlier work

Row | Compound | LD50 [1] [mg/kg] | toxicity (in words) (mice) | stabilizing effect on cysteine (in words) [2] | other results
1 | NC(=O)NC(CS)C(=O)O (racemic) [N-carbamoyl-DL-cysteine] | 13100 | extremely low in toxicity |  | 
2 | CC(=O)N[C@@H](CS)C(=O)O [N-acetylcysteine, N-acetyl-L-cysteine, reference compound] |  |  | adds to the stability of cysteine | 
3 | NC(=O)N[C@@H](CS)C(=O)O [N-carbamoyl-L-cysteine] | 13500 | extremely low in toxicity |  | 
4 | NC(=O)N[C@@H](CS)C(=O)O [N-carbamoylcysteine] |  |  | exceedingly superior | solubility (in words) (Solubility): not easily soluble
5 | N[C@@H](CSSC[C@H](N)C(=O)O)C(=O)O [cystine] |  |  |  | solubility in water (in words) [3]: hardly soluble in water
